Columns and labels:
[1] = target: T1, Human Mer (Homo sapiens, UniProt Q12866); experiment: Human Mer kinase assay (33P radiometric / HTRF KinEase); assay type: biochemical; settings: protocols of Examples C-1 and/or C-2
T1 construct: Human Mer (residues R557-E882 with H628Q and R794A, 0.7 nM); purchased Eurofins Pharma Discovery Services UK Limited (KinaseProfiler service)
T1 sequence (Q12866 557-882 limits assumed): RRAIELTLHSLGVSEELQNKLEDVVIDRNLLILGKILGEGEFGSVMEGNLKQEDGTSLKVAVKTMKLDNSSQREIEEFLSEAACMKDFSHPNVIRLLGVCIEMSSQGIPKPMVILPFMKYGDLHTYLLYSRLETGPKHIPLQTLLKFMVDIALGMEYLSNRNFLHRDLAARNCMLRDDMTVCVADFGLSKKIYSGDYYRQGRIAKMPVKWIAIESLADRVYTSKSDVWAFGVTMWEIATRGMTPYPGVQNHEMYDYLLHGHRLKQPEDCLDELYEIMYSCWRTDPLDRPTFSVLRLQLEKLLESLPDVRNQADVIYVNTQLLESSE
Method in brief: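 Two formats yield IC50 values. HTRF KinEase used MER residues 528-999 with ATP at Km (40 μM), 1 μM biotin-peptide, 60 min RT, […], 10 concentrations. 33P filter assay used 0.7 nM Mer R557-E882 (H628Q/R794A), 10 μM ATP, 250 μM peptide, 40 min RT, top 1 μM.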

[2] = target: T2, Human Met (Homo sapiens, UniProt P08581); experiment: Human Met kinase assay (33P radiometric / HTRF KinEase); assay type: biochemical; settings: protocols of Examples D-1 and/or D-2; read-out: c-Met IC50
T2 construct: Human MET (residues 956-1390)
Method in brief: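 Two formats gave IC50s by curve fitting. HTRF KinEase used MET residues 956-1390 with 1 μM biotin-peptide and 3.0 μM ATP (Km) for 40 min at room temperature, ten doses in 3% DMSO, 665/620 nm read. The 33P transfer assay used mutant Met R974-S1390 A1209G/V1290L (3.4 nM), 10 μM ATP, 250 μM peptide, pH 7.0, 40 min, nine doses from 1 μM.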

T2 sequence (P08581 974-1390 limits assumed): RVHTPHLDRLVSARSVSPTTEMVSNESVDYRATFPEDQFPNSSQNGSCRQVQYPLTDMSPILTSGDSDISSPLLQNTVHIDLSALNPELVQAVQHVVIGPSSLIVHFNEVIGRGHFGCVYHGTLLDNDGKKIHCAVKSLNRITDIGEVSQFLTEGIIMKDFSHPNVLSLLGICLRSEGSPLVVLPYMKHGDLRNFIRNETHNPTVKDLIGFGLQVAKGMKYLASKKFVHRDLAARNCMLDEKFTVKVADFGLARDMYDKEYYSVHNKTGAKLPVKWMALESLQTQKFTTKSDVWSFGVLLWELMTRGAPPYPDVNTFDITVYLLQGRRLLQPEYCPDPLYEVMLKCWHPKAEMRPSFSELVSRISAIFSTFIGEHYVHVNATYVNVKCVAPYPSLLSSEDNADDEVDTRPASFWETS

Row | Structure (SMILES) | IC50 [1] [µM] | IC50 [2] [µM]
1 | COc1cc2nccc(Oc3ccc(NC(=O)c4cn(CCF)c(C)c(C5=CCCCC5)c4=O)cc3F)c2nc1OC [Compound 8, 5-(Cyclohexen-1-yl)-N-[4-[(6,7-dimethoxy-1,5-naphthyridin-4-yl)oxy]-3-fluorophenyl]-1-(2-fluoroethyl)-6-methyl-4-oxopyridine-3-carboxamide] | ≤ 0.1 | ≤ 0.1
2 | COc1cc2nccc(Oc3ccc(NC(=O)c4c(C)nc(C)c(C5=CCCCC5)c4O)cc3F)c2nc1OC [Compound 2-3, 5-(Cyclohexen-1-yl)-N-[4-[(6,7-dimethoxy-1,5-naphthyridin-4-yl)oxy]-3-fluorophenyl]-4-hydroxy-2,6-dimethylpyridine-3-carboxamide] | ≤ 0.1 | ≤ 0.1
3 | COc1cc2nccc(Oc3ccc(NC(=O)c4c(C)cc(C)n(C5CCCC5)c4=O)cc3F)c2nc1OC [Compound 15, 1-Cyclopentyl-N-[4-[(6,7-dimethoxy-1,5-naphthyridin-4-yl)oxy]-3-fluorophenyl]-4,6-dimethyl-2-oxopyridine-3-carboxamide] | ≤ 0.1 | ≤ 0.1

Second part, the molecule after the results:

Row | IC50 [1] [µM] | IC50 [2] [µM] | Structure (SMILES)
4 | > 0.3 | > 0.3 | COc1cc2nccc(Oc3ccc(NC(=O)c4c(C)nc(C)c(C(=O)NC5CC5)c4O)cc3F)c2nc1OC [Compound 98, 5-N-Cyclopropyl-3-N-[4-[(6,7-dimethoxy-1,5-naphthyridin-4-yl)oxy]-3-fluorophenyl]-4-hydroxy-2,6-dimethylpyridine-3,5-dicarboxamide]
5 | ≤ 0.1 | ≤ 0.1 | COc1cc2nccc(Oc3ccc(NC(=O)c4c5n(c(C)c(C6=CCCCC6)c4=O)CCOC5)cc3)c2nc1OC [Compound 100, 7-(Cyclohexen-1-yl)-N-[4-[(6,7-dimethoxy-1,5-naphthyridin-4-yl)oxy]phenyl]-6-methyl-8-oxo-3,4-dihydro-1H-pyrido[2,1-c][1,4]oxazine-9-carboxamide]
6 | > 0.3 | ≤ 0.1 | COc1cc2nccc(Oc3ccc(NC(=O)c4c(C)nc(C)c(C(=O)N(C)C)c4O)cc3F)c2nc1OC [Compound 93, 3-N-[4-[(6,7-Dimethoxy-1,5-naphthyridin-4-yl)oxy]-3-fluorophenyl]-4-hydroxy-5-N,5-N,2,6-tetramethylpyridine-3,5-dicarboxamide]
7 | > 0.3 | > 0.3 | COc1cc2nccc(Oc3ccc(NC(=O)c4c(C)n(C)c(C)c(C(=O)O)c4=O)cc3F)c2nc1OC [Compound 92, 5-[[4-[(6,7-Dimethoxy-1,5-naphthyridin-4-yl)oxy]-3-fluorophenyl]carbamoyl]-1,2,6-trimethyl-4-oxopyridine-3-carboxylic acid]

— patent publication US20240158393A1, “PYRIDONE COMPOUNDS AND METHODS OF USE” (Exelixis, Inc., priority 2021, published 2024)
